Values joined by “and” are separate entries in the source; they are usually repeats but may differ in a detail not shown here. Equal values may be shown once.

Holding throughout (assay type): in vivo
Common to all, as to conditions: 20-22 d

The test system of assay [1] is Amaranthus retroflexus (pigweed). Description: Postemergence herbicidal activity, greenhouse, AMARE. How it is done:
(§1) Seeds of the desired test plant species were planted in Sun Gro MetroMix® 360 planting mixture, which typically has a pH of 6.0 to 6.8 and an organic matter content of about 30 percent, in plastic pots with a surface area of 103.2 square centimeters (cm^2). When required to ensure good germination and healthy plants, a fungicide treatment and/or other chemical or physical treatment was applied. The plants were grown for 7-36 days (d) in a greenhouse with an approximate 14-hour (h) photoperiod which was maintained at about 23° C. during the day and 22° C. during the night. Nutrients and water were added on a regular basis and supplemental lighting was provided with overhead metal halide 1000-Watt lamps as necessary. The plants were employed for testing when they reached the second or third true leaf stage.
(§2) Weighed amounts of technical material were dissolved in a volume of 97:3 volume per volume (v/v) acetone/dimethyl sulfoxide (DMSO) to make stock solutions. […] The concentrated stock solutions were diluted with an aqueous mixture of 1.5% v/v of Agri-dex crop oil concentrate to provide the appropriate application rates. […]
(§3) The treated plants and control plants were placed in a greenhouse as described above and watered by sub-irrigation to prevent wash-off of the test compounds. After 20-22 d, the condition of the test plants as compared with that of the control plants was determined visually and scored on a scale of 0 to 100 percent where 0 corresponds to no injury and 100 corresponds to complete kill. The condition of the test plants was compared with that of the control plants as determined visually and scored on a scale of 0 to 100 percent, where 0 corresponds to no injury and 100 corresponds to complete kill. […]
(§4) Compound 1 was formulated as an EC and was combined with phytoene desaturase inhibitor herbicides, very long chain fatty acid inhibitor herbicides, or mixtures thereof, and applied to weeds, and the phytotoxicity of the herbicidal composition was measured. […]

For assay [2], the system named is Brassica napus (spring rape). Description: Postemergence herbicidal activity, greenhouse, BRSNN. How it is done:
as §1, §2, §3, §4

Assay [3] concerns Cirsium arvense (thistle). Description: Postemergence herbicidal activity, greenhouse, CIRAR. The method, then: as §1
(§5) Weighed amounts of technical material were dissolved in a volume of 97:3 volume per volume (v/v) acetone/dimethyl sulfoxide (DMSO) to make stock solutions. […] The concentrated stock solutions were diluted with an aqueous mixture of 1.5% v/v of Agri-dex crop oil concentrate to provide the appropriate application rates. Compound requirements are based upon a 12 milliliter (mL) application volume at a rate of 187 liters per hectare (UJha). Spray solutions of the experimental compound mixtures were prepared by adding the stock solutions to the appropriate amount of dilution solution to form a 12 mL spray solution in two-way combinations. Formulated compounds were applied to the plant material with an overhead Mandel track sprayer equipped with 8002E nozzles calibrated to deliver 187 L/ha over an application area of 0.503 square meters (m^2) at a spray height of 18 inches ([…] (cm)) above average plant canopy. Control plants were sprayed in the same manner with the solvent blank. Application rates for component (a) are in g ae/ha, and application rates for component (b) are in g ai/ha.
as §3, §4

In assay [4] the test system is Cyperus esculentus (nutsedge). Description: Postemergence herbicidal activity, greenhouse, CYPES. The method, then:
When required to ensure good germination and healthy plants, a fungicide treatment and/or other chemical or physical treatment was applied. The plants were grown for 7-36 days (d) in a greenhouse with an approximate 14-hour (h) photoperiod which was maintained at about 23° C. during the day and 22° C. during the night. Nutrients and water were added on a regular basis and supplemental lighting was provided with overhead metal halide 1000-Watt lamps as necessary. The plants were employed for testing when they reached the second or third true leaf stage. Weighed amounts of technical material were dissolved in a volume of 97:3 volume per volume (v/v) acetone/dimethyl sulfoxide (DMSO) to make stock solutions. […] The concentrated stock solutions were diluted with an aqueous mixture of 1.5% v/v of Agri-dex crop oil concentrate to provide the appropriate application rates. Compound requirements are based upon a 12 milliliter (mL) application volume at a rate of 187 liters per hectare (UJha). Spray solutions of the experimental compound mixtures were prepared by adding the stock solutions to the appropriate amount of dilution solution to form a 12 mL spray solution in two-way combinations. […] Control plants were sprayed in the same manner with the solvent blank. Application rates for component (a) are in g ae/ha, and application rates for component (b) are in g ai/ha. The treated plants and control plants were placed in a greenhouse as described above and watered by sub-irrigation to prevent wash-off of the test compounds. […] Colby's equation was used to determine the herbicidal effects expected from the mixtures. Compound 1 was formulated as an EC and was combined with phytoene desaturase inhibitor herbicides, very long chain fatty acid inhibitor herbicides, or mixtures thereof, and applied to weeds, and the phytotoxicity of the herbicidal composition was measured. […]

In assay [5] the test system is Echinochloa crus-galli (barnyardgrass). Description: Postemergence herbicidal activity, greenhouse, ECHCG. How it is done:
as §1, §2, §3, §4

For assay [6], the system named is Ipomoea hederacea (ivyleaf morningglory). Description: Postemergence herbicidal activity, greenhouse, IPOHE. How it is done:
as §1, §2, §3, §4

Assay [7] relates to Polygonum convolvulus (wild buckwheat). Description: Postemergence herbicidal activity, greenhouse, POLCO. How it is done:
as §1, §2, §3, §4

Assay [8] deals with Sorghum vulgare (grain sorghum). Description: Postemergence herbicidal activity, greenhouse, SORVU. How it is done:
as §1, §2, §3, §4

For assay [9], the system named is Triticum aestivum (winter wheat). Description: Postemergence crop injury, greenhouse, TRZAW. The method, then: as §1, §2, §3, §4
Assay [10] concerns Viola tricolor (wild pansy). Description: Postemergence herbicidal activity, greenhouse, VIOTR. The method, then: as §1, §2, §3, §4
The test system of assay [11] is Zea mays (maize/corn). Description: Postemergence crop injury, greenhouse, ZEAMX. How it is done: as §1, §2, §3, §4
For assay [12], the system named is Abutilon theophrasti (velvetleaf). Nature of the assay: Postemergence herbicidal activity, greenhouse, ABUTH. How it is done:
as §1, §2, §3, §4

Assay [13] deals with Chenopodium album L. (common lambsquarters). Description: Postemergence herbicidal activity, greenhouse, CHEAL. The method, then: as §1, §5, §3, §4
The test system of assay [14] is Euphorbia heterophylla (poinsettia). Description: Postemergence herbicidal activity, greenhouse, EPHHL. How it is done:
as §1, §5
The treated plants and control plants were placed in a greenhouse as described above and watered by sub-irrigation to prevent wash-off of the test compounds. After 20-22 d, the condition of the test plants as compared with that of the control plants was determined visually and scored on a scale of 0 to 100 percent where 0 corresponds to no injury and 100 corresponds to complete kill. The condition of the test plants was compared with that of the control plants as determined visually and scored on a scale of 0 to 100 percent, where 0 corresponds to no injury and 100 corresponds to complete kill. Colby's equation was used to determine the herbicidal effects expected from the mixtures.
as §4

The subject of assay [15] is Kochia scoparia (kochia). Description: Postemergence herbicidal activity, greenhouse, KCHSC. The method, then: as §1, §2, §3, §4
Assay [16] deals with Stellaria media (chickweed). Nature of the assay: Postemergence herbicidal activity, greenhouse, STEME. How it is done: as §1, with “The plants were employed for testing when they reached the second or third true leaf stage.” left out
as §3

The subject of assay [17] is Veronica hederifolia (ivyleaf speedwell). Nature of the assay: Postemergence herbicidal activity, greenhouse, VERHE. How it is done:
as §1, with “The plants were employed for testing when they reached the second or third true leaf stage.” left out
as §3

Assay [18] concerns Digitaria sanguinalis (large crabgrass). Description: Postemergence herbicidal activity, greenhouse, DIGSA. How it is done: as §1, with “The plants were employed for testing when they reached the second or third true leaf stage.” left out
as §3

In assay [19] the test system is Oryza sativa (rice). Nature of the assay: Postemergence crop injury, greenhouse, ORYSA. How it is done: as §1, with “The plants were employed for testing when they reached the second or third true leaf stage.” left out
as §3

With `O=C(Nc1ccc(F)cc1)c1cccc(Oc2cccc(C(F)(F)F)c2)n1` [Picolinafen, N-(4-fluorophenyl)-6-[3-(trifluoromethyl)phenoxy]-2-pyridinecarboxamide], the “% Visual Injury” value is listed as 20% in assay [1] (picolinafen 12.5 g ai/ha); 25% in assay [2] (picolinafen 12.5 g ai/ha); 10% in [3] (picolinafen 12.5 g ai/ha); 0% in assay [4] (picolinafen 12.5 g ai/ha); 10% in assay [5] (picolinafen 12.5 g ai/ha); 5% in [6] (picolinafen 12.5 g ai/ha). Moreover, the “% Visual Injury” value is on record as 0% in assay [7] (picolinafen 12.5 g ai/ha); 0% in [8] (picolinafen 12.5 g ai/ha); 0% in assay [9] (picolinafen 12.5 g ai/ha); 10% in assay [10] (picolinafen 12.5 g ai/ha); 5% in assay [11] (picolinafen 12.5 g ai/ha).

Regarding `CC(C)N(C(=O)COc1nnc(C(F)(F)F)s1)c1ccc(F)cc1` [Flufenacet, N-(4-fluorophenyl)-N-(1-methylethyl)-2-[[5-(trifluoromethyl)-1,3,4-thiadiazol-2-yl]oxy]acetamide], the “% Visual Injury” value in assay [12] (flufenacet 60 g ai/ha) was 0%; in [3] (flufenacet 60 g ai/ha) it was 0%; in assay [13] (flufenacet 60 g ai/ha) it was 10%; in assay [14] (flufenacet 60 g ai/ha), 0%.

As to `Cn1nc(C(F)(F)F)c(CS(=O)(=O)C2=NOC(C)(C)C2)c1OC(F)F` [Pyroxasulfone, 3-[[[5-(difluoromethoxy)-1-methyl-3-(trifluoromethyl)-1H-pyrazol-4-yl]methyl]sulfonyl]-4,5-dihydro-5,5-dimethylisoxazole], the “% Visual Injury” value is 0% in assay [1] (pyroxasulfone 100 g ai/ha); 10% in assay [13] (pyroxasulfone 100 g ai/ha); 0% in assay [14] (pyroxasulfone 100 g ai/ha); 0% in assay [15] (pyroxasulfone 100 g ai/ha); 40% in assay [16] (pyroxasulfone 100 g ai/ha); 0% in assay [17] (pyroxasulfone 100 g ai/ha). In addition, the “% Visual Injury” value in assay [10] (pyroxasulfone 100 g ai/ha) is 0%.

Turning to `O=C(Nc1ccc(F)cc1F)c1cccnc1Oc1cccc(C(F)(F)F)c1` [Diflufenican, N-(2,4-difluorophenyl)-2-[3-(trifluoromethyl)phenoxy]-3-pyridinecarboxamide], the “% Visual Injury” value in assay [12] (diflufenican 50 g ai/ha) is 0%; in [2] (diflufenican 50 g ai/ha), 20%; in assay [3] (diflufenican 50 g ai/ha), 20%; in assay [4] (diflufenican 50 g ai/ha), 0%; in [18] (diflufenican 50 g ai/ha), 10%; in assay [5] (diflufenican 50 g ai/ha), 0%. Further, the “% Visual Injury” value in assay [14] (diflufenican 50 g ai/ha) turned out to be 10%; in assay [6] (diflufenican 50 g ai/ha) it was 0%; in [15] (diflufenican 50 g ai/ha) it was 10%; in [19] (diflufenican 50 g ai/ha), 0%; in assay [7] (diflufenican 50 g ai/ha), 10%; in assay [8] (diflufenican 50 g ai/ha), 0%. Further, the “% Visual Injury” value in assay [9] (diflufenican 50 g ai/ha) is listed as 0%; in assay [11] (diflufenican 50 g ai/ha), 5%.

Regarding `Nc1c(F)c(-c2ccc3cc[nH]c3c2F)nc(C(=O)O)c1Cl` [Compound 1], the “% Visual Injury” value is 50% in [12] (10 g ae/ha); 93% and 65% in [1] (5 g ae/ha); 50% in assay [2] (5 g ae/ha); 60% in assay [3] (10 g ae/ha); 90% and 80% in [13] (5 g ae/ha); 95% in [13] (10 g ae/ha). Also, the “% Visual Injury” value was 10% in [4] (5 g ae/ha); 0% in assay [18] (5 g ae/ha); 60% in assay [5] (5 g ae/ha); 97% and 75% in assay [14] (5 g ae/ha); 100% in assay [14] (10 g ae/ha); 20% in assay [6] (5 g ae/ha). Further, the “% Visual Injury” value in assay [15] (5 g ae/ha) is listed as 65%; in assay [19] (5 g ae/ha), 0%; in assay [7] (5 g ae/ha), 70%; in assay [8] (5 g ae/ha) it was 60%; in [16] (5 g ae/ha), 65%; in [9] (5 g ae/ha), 10%. Besides, the “% Visual Injury” value is 40% in [17] (5 g ae/ha); 10% and 5% in [10] (5 g ae/ha); 10% in assay [11] (5 g ae/ha).
